Test: Standing test of aqueous solution for crystalline deposit
Format: physicochemical

| SMILES | crystalline deposit on standing (aqueous 30% by mass solution, left standing at room temperature) | crystalline deposit on standing (aqueous 60% by mass solution, left standing at 0° C. for 10 days) |
| --- | --- | --- |
| CN(C)CC(=O)[O-].[Na+] [N,N-dimethylglycine sodium salt] | crystalline N,N-dimethylglycine sodium salt deposited | – |
| CN(C)CC(=O)O [N,N-dimethylglycine] | – | no crystalline deposit was observed |

Source: patent US7056450B2, “Highly concentrated aqueous solutions of N,N-dialkyl-glycines and process for preparation thereof” (Showa Denko K.K., priority 2001, dated 2006)
